The results in this text go back to patent US20250376466A1, “ESTER COMPOUNDS AND USE THEREOF” (NANJING REJU THERAPEUTICS, CO., LTD., priority 2022, published 2025).

Data set [1] concerns normal A549 cells, IMR90 cells, RPE cells, mouse chondrocytes, mouse skin fibroblasts. Put plainly: Cell viability of normal cells (CellTiter-Glo). Type of data set: cell-based, human. To be noted: 1 μM, 72 hours, FIGS. 2A to 2E. The protocol:
(§1) In this example, human non-small cell lung cancer cell line (A549 cells), human embryonic lung fibroblast cell line (IMR90 cells), human retinal pigment epithelial cells (RPE cells), mouse chondrocytes, and mouse skin fibroblasts were selected. The cells above were induced to obtain senescent cells by etoposide (10 μM). The effect of the target compounds RZ001-RZ006 and RZ201 on the viability of normal and senescent cells above was detected, thereby evaluating the specific killing effect of the prodrugs RZ001-RZ006 and RZ201 on senescent cells above.
(§2) Briefly, senescent and normal cells above were selected and plated separately (96-well plates). After adding the compounds RZ001-RZ006 and RZ201 (concentration: 1 μM) for 72 hours, CellTiter-Glo® Luminescent Cell Viability Assay Kit (Promega) was used to detect cell viability, and the results were shown in FIGS. 2A to 2E.

For data set [2], the system named is senescent A549 cells, IMR90 cells, RPE cells, mouse chondrocytes, mouse skin fibroblasts. As to the kind of experiment: Cell viability of senescent cells (CellTiter-Glo). The class given is cell-based, human. To be noted: 1 μM, 72 hours; etoposide (10 μM)-induced senescent cells; FIGS. 2A to 2E. The protocol:
as §1, §2
On the technique in general: In ATP-based viability assays light output follows the ATP content of the culture.

For data set [3], the system named is normal and senescent A549 cells. As to the kind of experiment: Senescent cell clearance index (senolytic index). Type of data set: cell-based, human. To be noted: higher index = greater specificity. As for the experimental part: as §1, §2
Furthermore, the senescent cell clearance index (senolytic index) was also calculated for both normal and senescent A549 cells, as shown in Table 4. A higher index indicates greater specificity in eliminating senescent cells and better safety.

Another data set relates to renal fibrosis. Put plainly: Renal fibrosis animal model (ureter ligation). Type of data set: in vivo, mice. Particulars: intraperitoneal (IP) injection from 2nd week of modelling; FIG. 11. As for the experimental part:
In this example, the efficacy of the compound of the present disclosure was tested on renal fibrosis in an animal model of renal fibrosis. Briefly, C57BL/6J mice, male, 7 to 8 weeks old, were used. The mice were anaesthetized, made to lie supine on a foam board, and disinfected with iodophor, and a longitudinal incision was made in the skin in the middle of the lower abdomen to locate the white line of the abdominal muscle, where the abdominal muscle, fascia and peritoneal layer were dissected. After exposing the surgical field, the kidneys were exposed by pushing the stomach and mesentery of the mice to the right side with a gauze soaked with saline. The model of renal fibrosis was constructed by locating the transparent ureter from the renal pelvis along the renal artery, separating the left ureter, ligating the upper ⅓ of the left ureter, suturing the incision layer by layer, and finally disinfecting with iodophor. Dosing via intraperitoneal injection was started from the 2nd week of modelling. At the end of the experiment, the mouse serum was collected and kidney tissues were taken for Masson staining index assay.

The test system of data set [4] is idiopathic pulmonary fibrosis. As to the kind of experiment: Bleomycin idiopathic pulmonary fibrosis animal model. Type of data set: in vivo, SD rats. Particulars: intraperitoneal (IP) 5 mg/kg, 3 consecutive weeks from day 7; Day 28; FIG. 6. The protocol:
In this example, the efficacy of the compounds of the present disclosure was tested on idiopathic pulmonary fibrosis in an idiopathic pulmonary fibrosis animal model. Briefly, anesthetized 6-week-old SD rats were fixed on a foam board with medical tape. Firstly, the skin on the surface of the trachea was cut with surgical scissors to fully expose the trachea, and a 100-microlitre micro-syringe containing a certain volume of bleomycin (BLM 5 mg/kg) solution drawn based on the body weight of the rat was inserted into the trachea through the oral cavity to administer by slow bolus injection. After administration of the BLM solution, the foam plate was immediately rotated and shaken to distribute the BLM solution as evenly as possible in the lung tissue. Then the skin on the surface of the trachea was sutured with surgical sutures and about 0.5 to 1.0 mL of penicillin solution was dripped onto the epidermis to prevent infection of the surgical wound. After the 7th day of modelling, the compound solution of the present disclosure was administered via intraperitoneal (IP) injection (5 mg/kg) according to the weight of the rat for 3 consecutive weeks. Rats were euthanized by carbon dioxide at Day 28, the lung tissues were removed, the left alveolar lavage fluid was collected for white blood cell (WBC) counting, the right lung tissue portion was used for hydroxyproline (HYP) assay, and the remaining lung tissues were stained for pathology by H&E staining and Masson staining.

Data set [5] has as its system wet-age-related macular degeneration (CNV). As to the kind of experiment: CNV animal model of wet age-related macular degeneration. The class given is in vivo, mice. Particulars: intravitreal (IVT); laser CNV model; FIG. 5. As for the experimental part: In this example, the efficacy of the compounds of the present disclosure was tested on wet-age-related macular degeneration in a CNV animal model.
Male mice were administered 0.5% probacaine hydrochloride (Alcon) for local anesthesia, and 1% tropicamide to dilate the pupils of the mice. Laser cauterization was performed using a laser photocoagulator (Novus Varia, LUMENIS) with a slit lamp delivery system. And artificially torn adherent glass coverslips were used as contact lenses. Bleeding spots caused by laser were not included in the statistical data.

A further data set relates to Alzheimer's disease. As to the kind of experiment: APP×PS1 transgenic mouse model of Alzheimer's disease. The class given is in vivo. Particulars: intraperitoneal injection, twice a week, 11 consecutive weeks; cerebral cortex; FIG. 8. The protocol: In this example, the efficacy of the compounds of the present disclosure was tested on Alzheimer's disease in an animal model of Alzheimer's disease. Briefly, a transgenic mouse model of APP×PS1 (purchased from Cyagen Biosciences) was selected and the compound of the present disclosure was administered by intraperitoneal injection for 11 consecutive weeks, twice a week. Alterations in amyloid in the cerebral cortex of the mice were observed.

The subject of the next data set is aging skin. Put plainly: Aging skin in naturally aging mouse model. The class given is in vivo. Particulars: skin application twice a week, 6 consecutive weeks; aged female mice (22 months old); FIG. 10. As for the experimental part: In this example, aged female C57bl/6J mice (22 months old) were used. The drug was administered by skin application at twice a week for 6 consecutive weeks.

The subject of a further data set is osteoarthritis. Put plainly: Osteoarthritis animal model. The class given is in vivo, mice. To be noted: intra-articular injection; FIG. 7. The protocol:
In this example, the efficacy of the compounds of the present disclosure was tested on osteoarthritis in an osteoarthritis animal model.
The osteoarthritis animal model was constructed by the following steps. The mice were anesthetized with isoflurane, and fixed. The hair on the right hind limb of the mice was shaved and the skin was disinfected with alcohol, and the skin of the joints was cut. Under an optical microscope, the inside of the right knee joint was incised longitudinally with a blade, without cutting the patellar ligament. The patellar ligament was pulled to one side with constant hemostasis by compression with sterile cotton swabs such that the joint cavity was fully exposed. Saline was added dropwise in time to avoid the drying up of the joint cavity. The excess muscle tissue was gently separated with a blunt forceps to expose the meniscus ligament. The anterior cruciate ligament was found in the depth of the joint cavity and cut with micro scissor. Then the wound was disinfected with penicillin solution, the muscle was sutured with sterile needle and thread, and the skin tissue was finally sutured. The efficacy of the drug was determined by intra-articular injection administration. At the endpoint of the test, continued pain threshold of the plantar was detected, and the bone joints were stained with safranin fast green.

For a further data set, the system named is hepatic fibrosis. Put plainly: CCl4 mouse model of hepatic fibrosis. Type of data set: in vivo, mice. To be noted: intraperitoneal (IP) injection twice a week from third week of modelling; FIG. 9. As for the experimental part: In this example, the efficacy of the compounds of the present disclosure was tested on hepatic fibrosis in an animal model of hepatic fibrosis. Briefly, C57BL/6N mice, male, 7 to 8 weeks old, 24 to 28 g of body weight, were used. The mouse model of hepatic fibrosis was induced by intraperitoneal injection of CCl4 solution at a dosage of 1 mL/kg, with a dosing frequency of 2 times/week, and a modelling cycle of 6 weeks. Dosing via intraperitoneal injection was started from the third week of modelling twice a week. At the end of the test, serum was collected, and liver tissue was taken for Masson staining index assay.

The next data set has as its system diabetic retinopathy. Put plainly: Mouse model of diabetic retinopathy (STZ), Evans blue penetration. Type of data set: in vivo. To be noted: intravitreal (IVT), 1 μL of 200 μM at 8 and 9 weeks after STZ; Evans blue at 10 weeks; FIG. 4. As for the experimental part:
The efficacy of the compounds of the present disclosure was studied in a mouse model of diabetic retinopathy by multiple administrations of streptozotocin (STZ). C57BL/6J mice at 6 to 7 weeks were weighed and their baseline blood glucose was measured (Sino). STZ (Sigma-Aldrich) was injected intraperitoneally into the mice at 55 mg/Kg for five consecutive days. Age-matched controls were injected with buffer only. Blood glucose was measured again one week after the last STZ injection. 1 μL of the test compound (200 μM, a suspension formulated in 0.015% polysorbate 80, 0.2% sodium phosphate, 0.75% sodium chloride, pH 7.2) was injected intravitreally into the STZ-treated diabetic C57BL/6J mice at 8 and 9 weeks after STZ administration. 10 weeks after STZ treatment, the retinal Evans blue penetration assay was performed.

For `Cc1c(-c2ccc(N3CCc4cccc(C(=O)Nc5nc6ccccc6s5)c4C3)nc2C(=O)O)cnn1CC12CC3CC(CC(C3)C1)C2` [Compound A-1331852, reference compound], the “cytotoxicity against normal cells (cell viability)” value in [1] is on record as “significant cytotoxicity against normal cells”. Besides, in [2], the “cytotoxicity against senescent cells (cell viability)” value was “killing senescent cells”. In addition, in data set [3], the “senescent cell clearance index (Senolytic Index)” value (“senescent cell clearance index” for short) is listed as “D (D represents 30 to 50)”.
On to `CCCC(=O)OCOC(=O)c1nc(N2CCc3cccc(C(=O)Nc4nc5ccccc5s4)c3C2)ccc1-c1cnn(CC23CC4CC(CC(C4)C2)C3)c1C` [RZ004], for which the “senescent cell clearance index” value in data set [3] is “B (B represents 100 to 200)”.
For the compound `CCCCOC(=O)c1nc(N2CCc3cccc(C(=O)Nc4nc5ccccc5s4)c3C2)ccc1-c1cnn(CC23CC4CC(CC(C4)C2)C3)c1C` [RZ008], in [3], the “senescent cell clearance index” value was “F (F represents less than 10)”.
With `CCC(=O)OC(OC(=O)c1nc(N2CCc3cccc(C(=O)Nc4nc5ccccc5s4)c3C2)ccc1-c1cnn(CC23CC4CC(CC(C4)C2)C3)c1C)C(C)C` (stereo not drawn) [RZ007], the “senescent cell clearance index” value in data set [3] is listed as “B (B represents 100 to 200)”.
`Cc1c(-c2ccc(N3CCc4cccc(C(=O)Nc5nc6ccccc6s5)c4C3)nc2C(=O)OCOC(=O)[C@@H](N)C(C)C)cnn1CC12CC3CC(CC(C3)C1)C2` [RZ301]: the “senescent cell clearance index” value in data set [3] is on record as “B (B represents 100 to 200)”.
On to `Cc1c(-c2ccc(N3CCc4cccc(C(=O)Nc5nc6ccccc6s5)c4C3)nc2C(=O)OCOC(=O)OC(C)C)cnn1CC12CC3CC(CC(C3)C1)C2` [RZ002], for which, in the data set with renal fibrosis, the “pathology (kidney, Masson staining)” value is “statistically significant improvements”; the “serum creatinine (Cr) levels” value is listed as “statistically significant improvements”; the “serum urea nitrogen (BUN) levels” value is “statistically significant improvements”. In [4], the “HYP (hydroxyproline, lung tissue)” value is recorded as “statistically significant improvements”; the “WBC (white blood cell count, alveolar lavage fluid)” value is given as “statistically significant improvements”; the “pathology scores (H&E and Masson staining, lung)” value was “statistically significant improvements”. In addition, the fluorescence intensity indicators entry in [5] is “statistically significant improvements”. For the same compound, the “Aβ42 pathogenic protein indicators” value in the data set on Alzheimer's disease was “statistically significant improvements”. Besides, in the data set on aging skin, the “epidermal thickness scores of the skin” value is recorded as “statistically significant improvements”. The “senescent cell clearance index” value in [3] is “B (B represents 100 to 200)”. In addition, in the data set with osteoarthritis, the “pathology scores of safranin fast green staining” value is listed as “statistically significant improvements” and the “plantar mechanical pain threshold” value was “statistically significant improvements”. For the same compound, in the data set with hepatic fibrosis, the “pathology scores (liver, Masson staining)” value was “statistically significant improvements”; the “serum alanine aminotransferase (ALT) levels” value was “statistically significant improvements”; the “serum aspartate aminotransferase (AST) levels” value is on record as “statistically significant improvements”. Further, in the data set on diabetic retinopathy, the “vascular permeability in both the retinal and choroidal vascular leakage” value is “improved vascular permeability”.
As to `CCOC(=O)c1nc(N2CCc3cccc(C(=O)Nc4nc5ccccc5s4)c3C2)ccc1-c1cnn(CC23CC4CC(CC(C4)C2)C3)c1C` [RZ202], the “senescent cell clearance index” value in data set [3] is reported as “F (F represents less than 10)”.
Turning to `CCOC(=O)OCOC(=O)c1nc(N2CCc3cccc(C(=O)Nc4nc5ccccc5s4)c3C2)ccc1-c1cnn(CC23CC4CC(CC(C4)C2)C3)c1C` [RZ006], in data set [3], the “senescent cell clearance index” value is “B (B represents 100 to 200)”.
Regarding `Cc1c(-c2ccc(N3CCc4cccc(C(=O)Nc5nc6ccccc6s5)c4C3)nc2C(=O)OCOC(=O)C(C)(C)C)cnn1CC12CC3CC(CC(C3)C1)C2` [RZ003], in data set [3], the “senescent cell clearance index” value is listed as “B (B represents 100 to 200)”.
As to `CC(=O)OCOC(=O)c1nc(N2CCc3cccc(C(=O)Nc4nc5ccccc5s4)c3C2)ccc1-c1cnn(CC23CC4CC(CC(C4)C2)C3)c1C` [RZ005], the “senescent cell clearance index” value in data set [3] was “B (B represents 100 to 200)”.
In the case of `Cc1c(-c2ccc(N3CCc4cccc(C(=O)Nc5nc6ccccc6s5)c4C3)nc2C(=O)OCCN2CCOCC2)cnn1CC12CC3CC(CC(C3)C1)C2` [RZ011], the “senescent cell clearance index” value in [3] is on record as “F (F represents less than 10)”.
The same measure, in the same setting: under `Cc1c(-c2ccc(N3CCc4cccc(C(=O)Nc5nc6ccccc6s5)c4C3)nc2C(=O)OC(C)OC(=O)C(C)C)cnn1CC12CC3CC(CC(C3)C1)C2` (stereo not drawn) [RZ009] stands “B (B represents 100 to 200)”; under `Cc1c(-c2ccc(N3CCc4cccc(C(=O)Nc5nc6ccccc6s5)c4C3)nc2C(=O)OC(C)OC(=O)OC(C)C)cnn1CC12CC3CC(CC(C3)C1)C2` (stereo not drawn) [RZ010], “C (C represents 50 to 100)”.
